# How the values were obtained:
# [1] = test system: HT-29 cells; assay: antitumoral assay, HT-29 cell growth inhibition (cell counting); type: cell-based, human; conditions: four days of incubation
# Procedure: (§1) Pateamine was diluted in MeOH/CH₂Cl₂ 1:1 at 100 ng/ml and it has been tested at different concentrations. The solvent was added to evaporate before the cells were seeded.
# (§2) Four general antitumoral assays, employing the currently accepted screening protocols have been carried out using the following cells: P-388 (lymphoid neoplasm from DBA/2 mouse) A-549 (human lung carcinoma) HT-29 (human colon carcinoma) KB (human oral epidermoid carcinoma)
# (§3) HT-29 cells were seeded into 16 mm wells at 4 x 10⁴ per well. The day after the inoculum was replaced by 1 ml aliquots of MEM 10FCS containing the indicated concentration of drug. All determinations were carried out in duplicate. After four days of incubation cells were counted and the IC₅₀ was determined. DATA TABLE-III
# [2] = test system: A-549 cells; assay: antitumoral assay, A-549 cell growth inhibition (cell counting); type: cell-based, human; conditions: three days of incubation
# Procedure: as §1, §2
# as §3, with “A-549” for “HT-29”, “2” for “4”, “determination” for “determinations”, “three” for “four”, “TABLE-II” for “TABLE-III”
# [3] = test system: BHK cells; assay: cytotoxicity assay, BHK cell growth inhibition (cell counting); type: cell-based, hamster; conditions: three days of incubation
# Procedure: as §1
# (§4) Two types of cytotoxicity assays were conducted, one of them employing conventional screening protocols and the other using the MTT method. In both cases the cells were: CV-1 (monkey kidney fibroblast) BHK (hamster kidney fibroblast)
# as §3, with “BHK” for “HT-29”, “2 X” for “4 x”, “three” for “four”, “TABLE-VI” for “TABLE-III”
# [4] = test system: CV-1 cells; assay: cytotoxicity assay, MTT method, CV-1 cells; type: cell-based, monkey; conditions: three days of incubation
# Procedure: as §4
# (§5) CV-1 and BHK cells were seeded into 9 mm wells at 1 x 10⁴ cells per well (logarithmic phase) and at 2 x 10⁵ cells per well (stationary phase). The day after the inoculum was replaced by […] aliquots of MEM 10FCS containing different concentrations of drug. All determinations were carried out in duplicate. After three days of incubation, 50 µl of medium containing 100 µg of MTT were added. Plates were incubated for two hours, medium was removed and 100 µl of isopropanol were added. The absorbencies were determined with a microtiter reader. DATA TABLE-VII
# [5] = test system: HSV-1 (herpes simplex virus, type 1); assay: antiviral assay, plaque reduction, HSV-1 in CV-1 cells; type: cell-based
# [6] = test system: Balb/c lymphocytes; type: cell-based, mice
# [7] = test system: CV-1 cells; assay: cytotoxicity assay, CV-1 cell growth inhibition (cell counting); type: cell-based, monkey; conditions: four days of incubation
# Procedure: as §1, §4
# as §3, with “CV-1” for “HT-29”, “2” for “4”, “TABLE-V” for “TABLE-III”
# [8] = test system: CV-1 cells; assay: cytotoxicity in antiviral assay, inhibition zone on the CV-1 cell sheet; conditions: CV-1/HSV-1
# [9] = test system: KB cells; assay: antitumoral assay, KB cell growth inhibition (cell counting); type: cell-based, human; conditions: four days of incubation
# Procedure: as §1, §2
# as §3, with “KB” for “HT-29”, “2 X” for “4 x”, “10⁴ cells” for “10⁴”, “TABLE-IV” for “TABLE-III”
# [10] = test system: P388 cell line; assay: P388 assay of fractions during isolation; type: cell-based; conditions: isolation fractions and free base form
# Procedure: The sponge N.sp2 was extracted with methanol and a 3:1 mixture of methanol dichloromethane. An aqueous suspension of the entire 1 Kg extract of Mycale was extracted with three equivalent volumes of chloroform which was in turn back-extracted with distilled water. The organic extract (7.5 g) was loaded onto a C₁₈ flash column (200 g freshly prepared). Elution was started with 50% water/methanol, the methanol content was increased in steps to 100%, and then dichloromethane was added in gradual increments to 50%. Sixteen fractions were collected, weighed and assayed. Good total recovery of mass and activity was obtained with most of the activity confined to one fraction. […] A gradient solvent system was used (CH₂Cl₂, EtOAc, MeOH) and the fractions were monitored by TLC. Much of the fatty acids and pigments were eluted with the mixtures of CH₂Cl₂ and EtOAc, while a yellow charring (H₂SO₄ on silica) material came off in 5 - 20% MeOH in EtOAc. The fractions containing the yellow char were combined to yield a mass of 240 mg. […] This fraction was further purified using amino cartridges (500 mg). The activity was eluted with MeOH to yield 45 mg of material (IC₅₀ 0.5 ng/ml P388). Final purifications was obtained on a LH20 column using the eluting solvent system 9:1 MeOH/CH₂Cl₂ with 2% concentrated aqueous ammonia. This was selected to keep the active component in a free base form. […]
# [11] = test system: P-388 cells; assay: antitumoral assay, P-388 cell growth inhibition (cell counting); type: cell-based, DBA/2 mouse; conditions: three days of incubation
# Procedure: as §1, §2
# P-388 cells were seeded into 16 mm wells at 1 x 10⁴ per well in 1 ml aliquots of MEM 10FCS containing the indicated concentration or drug. All determinations were carried out in duplicate. After three days of incubation cells were counted and the IC₅₀ was determined. DATA TABLE-I
# [12] = test system: BHK cells; assay: cytotoxicity assay, MTT method, BHK cells; type: cell-based, hamster; conditions: three days of incubation
# Procedure: as §4, §5
# [13] = test system: VSV (vesicular stomatitis virus); type: cell-based
substance,measurement,setting,value
pateamine,% Inhibition HT-29 cell growth,[1]; 0.1ng,0%
same,% Inhibition HT-29 cell growth,[1]; 0.5ng,0%
same,% Inhibition HT-29 cell growth,[1]; 1ng,35%
same,% Inhibition HT-29 cell growth,[1]; 5ng,85%
same,% Inhibition HT-29 cell growth,[1]; 10ng,91%
same,IC₅₀ ng/ml approx.,[1]; HT-29 cell growth,~2 ng/mL
same,% Inhibition A-549 cell growth,[2]; 0.1ng,0%
same,% Inhibition A-549 cell growth,[2]; 0.5ng,0%
same,% Inhibition A-549 cell growth,[2]; 1ng,71%
same,% Inhibition A-549 cell growth,[2]; 5ng,100%
same,% Inhibition A-549 cell growth,[2]; 10ng,100%
same,IC₅₀ ng/ml approx.,[2]; A-549 cell growth,~0.7 ng/mL
same,% Inhibition BHK cell growth,[3]; 0.1ng,0%
same,% Inhibition BHK cell growth,[3]; 0.5ng,0%
same,% Inhibition BHK cell growth,[3]; 1ng,0%
same,% Inhibition BHK cell growth,[3]; 5ng,98%
same,% Inhibition BHK cell growth,[3]; 10ng,100%
same,IC₅₀ ng/ml approx.,[3]; BHK cell growth,~3 ng/mL
same,IC₅₀,[4]; log. phase,2.4 ng/mL
same,IC₅₀,[4]; stat. phase,>100 ng/mL
same,% Inhibition CV-1/HSV-1 (plaque reduction sign),[5]; 20ng,"+ (The sign (+), indicates that plaques are reduced by approx. 50-60%.)"
same,% Inhibition CV-1/HSV-1 (plaque reduction sign),[5]; 40ng,"++ (The sign (+ +), indicates that plaques are reduced by approx. 70-90%.)"
same,% Inhibition CV-1/HSV-1 (plaque reduction sign),[5]; 100ng,"+++ (The sign (+ + +), indicates that plaques are reduced 100%.)"
same,% Inhibition CV-1/HSV-1 (plaque reduction sign),[5]; 200ng,"+++ (The sign (+ + +), indicates that plaques are reduced 100%.)"
same,% Inhibition CV-1/HSV-1 (plaque reduction sign),[5]; 400ng,"+++ (The sign (+ + +), indicates that plaques are reduced 100%.)"
same,IC₅₀ ng/disk,"[5]; CV-1/HSV-1, ( + ) is the approximately IC₅₀",20 ng/disk
same,IC₅₀ for the LcV,[6],4.1 µg/mL
same,% Inhibition CV-1 cell growth,[7]; 0.1ng,0%
same,% Inhibition CV-1 cell growth,[7]; 0.5ng,0%
same,% Inhibition CV-1 cell growth,[7]; 1ng,31%
same,% Inhibition CV-1 cell growth,[7]; 5ng,84%
same,% Inhibition CV-1 cell growth,[7]; 10ng,100%
same,IC₅₀ ng/ml approx.,[7]; CV-1 cell growth,~2.4 ng/mL
same,"cytotoxicity for the cells, inhibition zone on the cell sheet",[8]; 10ng,6
same,"cytotoxicity for the cells, inhibition zone on the cell sheet",[8]; 20ng,10
same,"cytotoxicity for the cells, inhibition zone on the cell sheet",[8]; 40ng,12
same,"cytotoxicity for the cells, inhibition zone on the cell sheet",[8]; 100ng,14
same,"cytotoxicity for the cells, inhibition zone on the cell sheet",[8]; 200ng,16
same,"cytotoxicity for the cells, inhibition zone on the cell sheet",[8]; 400ng,16
same,% Inhibition KB cell growth,[9]; 0.1ng,70%
same,% Inhibition KB cell growth,[9]; 0.5ng,67%
same,% Inhibition KB cell growth,[9]; 1ng,96%
same,% Inhibition KB cell growth,[9]; 5ng,100%
same,% Inhibition KB cell growth,[9]; 10ng,100%
same,IC₅₀ ng/ml approx.,[9]; KB cell growth,<0.05 ng/mL
same,IC₅₀,[10],0.15 ng/mL
same,% Inhibition P-388 cell growth,[11]; 0.1ng,11%
same,% Inhibition P-388 cell growth,[11]; 0.5ng,0%
same,% Inhibition P-388 cell growth,[11]; 1ng,100%
same,% Inhibition P-388 cell growth,[11]; 5ng,100%
same,% Inhibition P-388 cell growth,[11]; 10ng,100%
same,IC₅₀ ng/ml approx.,[11]; P-388 cell growth,~0.3 ng/mL
same,IC₅₀,[12]; log. phase,3.7 ng/mL
same,IC₅₀,[12]; stat. phase,>100 ng/mL
same,IC₅₀ ng/disk,[13],>20 ng/disk
